{"source": "patent US20250250581A1", "about": "“HERBICIDE-RESISTANT POLYPEPTIDE AND APPLICATION THEREOF” (SHANDONG SHUNFENG BIOTECHNOLOGY CO.LTD., priority 2022, published 2025)", "key": {"[1]": {"test_system": "wild-type Nipponbare HIR1 knockout plant hir1 (NIP)", "assay": "Herbicide spraying of plants, HIR1 knockout in wild-type background", "type": "in vivo, rice", "conditions": "40 μM spray, two weeks later, LOC_Os02g09720 knockout in wild-type background", "source_text": "(§1) To further confirm the relationship between gene LOC_Os02g09720 and the herbicide isoxaflutole, we designed two different sgRNA targets in the coding region of gene LOC_Os02g09720 and knocked out the gene using CRISPR/Cas9 in the wild-type Nipponbare rice and YX6 resistant rice backgrounds. After obtaining TO transgenic plants, the two target regions were sequenced, and homozygous knockout plants were selected and sprayed with herbicides together with wild-type plants and YX6 resistant plants. The concentration of isoxaflutole was set to 40 μM. The phenotype was observed two weeks later. […] We named this gene HIR1 (HPPD INHIBITOR RESISTANCE 1), and its encoded protein is HIR1 protein. The amino acid sequence is shown in SEQ ID No.1. The genotype of the wild-type Nipponbare plant is HIR1, and the knockout plant is hir1."}, "[2]": {"test_system": "transgenic plant numbered YX6 (T1 generation seeds)", "assay": "Seed germination on ½ MS medium with isoxaflutole, YX6 T1 seeds", "type": "in vivo, rice", "conditions": "400 nM in ½ MS medium, 10 days after inoculation", "source_text": "(§2) In this study, the base editor mediates genetic transformation through Agrobacterium, and the recipient variety was Nipponbare (NIP). After obtaining TO transgenic plants, the genotype of the target site was identified by PCR and sequencing, and the mutant individuals were transplanted to the field and T1 generation seeds were harvested. In order to verify the resistance of the mutant to herbicides, the harvested T1 generation seeds were dehulled, disinfected, and then inoculated on ½ MS medium with different HPPD herbicides. We selected the herbicide isoxaflutole, and the final concentration was set to 400 nM, while the tolerance concentration of wild-type Nipponbare rice to isoxaflutole during the seed germination stage was about 100 nM. Seed germination and seedling growth status were observed and counted 10 days after inoculation. […] To further confirm its resistance, we transplanted the green seedlings of YX6 into the greenhouse and sprayed them with 100 μM isoxaflutole one month later. The tolerance concentration of wild-type Nipponbare rice to isoxaflutole during the seedling stage was about 40 μM."}, "[3]": {"test_system": "transgenic plants (SqHIR1) in rice variety Xiushui 134", "assay": "Herbicide spraying of T0 transgenic seedlings overexpressing SqHIR1", "type": "in vivo", "conditions": "50 mg/L (139 μM) spray", "protocol": "(§3) Verifying the herbicide resistance of the above two genes (ZmHIR1 and SqHIR1): cloning these two genes, respectively, and overexpressing them in the rice variety Xiushui 134. The TO generation transgenic seedlings were sprayed with 50 mg/L (139 μM) herbicide isoxaflutole for resistance identification, and the results are shown in FIGS. 10-11."}, "[4]": {"test_system": "rice YX6 mutant (OE-HIR1)", "assay": "Herbicide spraying of plants, YX6 mutant", "type": "in vivo", "conditions": "for rank order of resistance of the YX6 mutant (OE-HIR1) to different herbicides: comparison among herbicides sprayed", "source_text": "as §2, §1\n(§4) In order to further determine the resistance strength of rice YX6 mutant (OE-HIR1), we set up three high concentration gradients of isoxaflutole to spray it (200 μM, 400 μM, 800 µM), with wild-type Nipponbare plants (HIR1) and wild-type Nipponbare HIR1 gene knockout plants (hir1) as controls. […] The tolerance range of rice YX6 mutant (OE-HIR1) to isoxaflutole may be higher, even reaching 1200-1500 μM, while the tolerance concentration of wild-type Nipponbare plants to isoxaflutole was about 40 μM, and its resistance is estimated to be increased by 30 times.\n(§5) HPPD herbicides mainly include triketones, pyrazolones, isoxazolones, diketonitriles, and benzophenones. In order to determine whether the rice YX6 mutant (OE-HIR1) is resistant to other HPPD herbicides, we selected the herbicides: mesotrione, tembotrione, an unlisted quinotrione-methyl analog (Y13287), topramezone, and pyrasulfotole, and sprayed them with wild-type Nipponbare rice as the control."}, "[5]": {"test_system": "resistant plant YX6 HIR1 knockout plant hir1 (YX6)", "assay": "Herbicide spraying of plants, HIR1 knockout in YX6 background", "type": "in vivo, rice", "conditions": "40 μM spray, two weeks later, LOC_Os02g09720 knockout in YX6 background", "source_text": "as §1"}, "[6]": {"test_system": "wild-type Nipponbare plants (HIR1)", "assay": "Herbicide spraying of plants, wild-type Nipponbare", "type": "in vivo, rice", "source_text": "as §2, §1, §4, §5"}, "[7]": {"test_system": "wild-type (WT) rice plants, variety Xiushui 134", "assay": "Herbicide spraying for resistance identification, wild-type Xiushui 134", "type": "in vivo", "conditions": "50 mg/L (139 μM) spray", "protocol": "as §3"}, "[8]": {"test_system": "wild-type Nipponbare rice", "assay": "Seed germination on ½ MS medium with isoxaflutole, wild-type Nipponbare", "type": "in vivo", "source_text": "as §2"}, "[9]": {"test_system": "transgenic plants (ZmHIR1) in rice variety Xiushui 134", "assay": "Herbicide spraying of T0 transgenic seedlings overexpressing ZmHIR1", "type": "in vivo", "conditions": "50 mg/L (139 μM) spray", "protocol": "as §3"}, "[10]": {"conditions": "400 μM spray, YX6 mutant (OE-HIR1)"}}}
{"smiles": "CS(=O)(=O)c1cc(C(F)(F)F)ccc1C(=O)c1cnoc1C1CC1", "note": "[isoxaflutole]", "values": [{"measurement": "phenotype after spraying", "setting": "[1]", "value": "bleached, withered, and died gradually"}, {"measurement": "seed germination and seedling growth status", "setting": "[2]", "value": "seedlings remained green normally"}, {"measurement": "phenotype after spraying", "setting": "[3]", "value": "basically remained green, with normal plant height and good growth status"}, {"measurement": "phenotype after spraying", "setting": "[4]; 40 μM spray, two weeks later, YX6 plants", "value": "not affected and grew normally"}, {"measurement": "phenotype after spraying", "setting": "[4]; 100 μM spray, after two weeks, YX6", "value": "not affected at all"}, {"measurement": "phenotype after spraying", "setting": "[4]; 800 μM spray, YX6 mutant (OE-HIR1)", "value": "could still grow normally"}, {"measurement": "resistance increase versus wild-type Nipponbare", "setting": "[4]; YX6 mutant (OE-HIR1) vs wild type tolerance about 40 μM, estimated", "value": "~30", "unit": "times"}, {"measurement": "tolerance range", "setting": "[4]; YX6 mutant (OE-HIR1), 'may be higher, even reaching'", "value": "1200 to 1500", "unit": "µM"}, {"measurement": "phenotype after spraying", "setting": "[5]", "value": "bleached, withered, and died gradually"}, {"measurement": "phenotype after spraying", "setting": "[6]; 40 μM spray, two weeks later, wild-type plants", "value": "bleaching and wilting, but still survived"}, {"measurement": "phenotype after spraying", "setting": "[6]; 100 μM spray, after two weeks, wild-type Nipponbare", "value": "completely bleached and withered"}, {"measurement": "tolerance concentration during the seedling stage", "setting": "[6]; wild-type Nipponbare, spraying", "value": "about 40 μM"}, {"measurement": "phenotype after spraying", "setting": "[7]", "value": "become dwarfed, yellow, and dry"}, {"measurement": "seed germination and seedling growth status", "setting": "[8]; 400 nM in ½ MS medium, 10 days after inoculation, wild-type Nipponbare", "value": "obvious bleaching symptoms of phytotoxicity"}, {"measurement": "tolerance concentration during the seed germination stage", "setting": "[8]; wild-type Nipponbare rice, seed germination stage", "value": "about 100 nM"}, {"measurement": "phenotype after spraying", "setting": "[9]", "value": "basically remain green, with normal plant height and good growth status"}]}
{"smiles": "CS(=O)(=O)c1ccc(C(=O)C2C(=O)CCCC2=O)c([N+](=O)[O-])c1", "note": "[mesotrione]", "values": [{"measurement": "phenotype after spraying", "setting": "[4]; [10]", "value": "had no phytotoxicity and could grow normally without bleaching"}, {"measurement": "rank order of resistance of the YX6 mutant (OE-HIR1) to different herbicides", "setting": "[4]", "value": "sulfone pyrazone>topramezone≈tembotrione>mesotrione≈quinotrione-methyl analog"}, {"measurement": "phenotype after spraying", "setting": "[6]; 400 μM spray, wild-type plants", "value": "had all bleached and suffered certain phytotoxicity"}]}
{"smiles": "Cc1nn(C)c(O)c1C(=O)c1ccc(C(F)(F)F)cc1S(C)(=O)=O", "note": "[pyrasulfotole]", "values": [{"measurement": "phenotype after spraying", "setting": "[4]; [10]", "value": "had no phytotoxicity and could grow normally without bleaching"}, {"measurement": "rank order of resistance of the YX6 mutant (OE-HIR1) to different herbicides", "setting": "[4]", "value": "sulfone pyrazone>topramezone≈tembotrione>mesotrione≈quinotrione-methyl analog"}, {"measurement": "phenotype after spraying", "setting": "[6]; 400 μM spray, wild-type plants", "value": "had all bleached and suffered certain phytotoxicity"}]}
{"smiles": "CS(=O)(=O)c1ccc(C(=O)C2C(=O)CCCC2=O)c(Cl)c1COCC(F)(F)F", "note": "[tembotrione]", "values": [{"measurement": "phenotype after spraying", "setting": "[4]; [10]", "value": "had no phytotoxicity and could grow normally without bleaching"}, {"measurement": "rank order of resistance of the YX6 mutant (OE-HIR1) to different herbicides", "setting": "[4]", "value": "sulfone pyrazone>topramezone≈tembotrione>mesotrione≈quinotrione-methyl analog"}, {"measurement": "phenotype after spraying", "setting": "[6]; 400 μM spray, wild-type plants", "value": "had all bleached and suffered certain phytotoxicity"}]}
{"smiles": "Cc1c(C(=O)c2cnn(C)c2O)ccc(S(C)(=O)=O)c1C1=NOCC1", "note": "[topramezone]", "values": [{"measurement": "phenotype after spraying", "setting": "[4]; [10]", "value": "had no phytotoxicity and could grow normally without bleaching"}, {"measurement": "rank order of resistance of the YX6 mutant (OE-HIR1) to different herbicides", "setting": "[4]", "value": "sulfone pyrazone>topramezone≈tembotrione>mesotrione≈quinotrione-methyl analog"}, {"measurement": "phenotype after spraying", "setting": "[6]; 400 μM spray, wild-type plants", "value": "had all bleached and suffered certain phytotoxicity"}]}
